Counter-ions that a name gives are not always drawn. Like-named read-outs stand apart in the source and are kept apart here.
Columns and labels:
[1] = target: β-Secretase (BACE-1) (Homo sapiens (Human), UniProt P56817); test: β-Secretase (BACE-1) inhibition assay; format: biochemical; settings: read-out: BACE-1 IC50
Description: β-Secretase (BACE-1, Sigma) inhibition studies were performed by employing a peptide mimicking APP sequence as substrate (methoxycoumarin-[…]dinitrophenyl, M-2420, Bachem). The following procedure was employed: 5 μL of test compound (or DMSO, if preparing a control well) were pre-incubated with 175 μL of the enzyme (in 20 mM sodium acetate containing CHAPS 0.1% w/v) for 1 h at room temperature. The substrate (3 μM, final concentration) was then added and left to react for 15 min. The fluorescence signal was read at λem=405 nm (λexc=320 nm). […] The fluorescence intensities with and without inhibitor were compared and the percent inhibition due to the presence of test compounds was calculated. The background signal was measured in control wells containing all the reagents, except BACE-1 and subtracted. […] Inhibition curves were obtained by plotting the % inhibition versus the logarithm of inhibitor concentration in the assay sample. The linear regression parameters were determined and the IC50 extrapolated (GraphPad Prism 4.0, GraphPad Software Inc.).

[2] = system: APP-PS1 mice; test: Senile plaques in APP-PS1 mice (Thioflavin-S staining); format: in vivo, mouse
[3] = system: human recombinant AChE-induced Aβ1-40 aggregation; test: AChE-induced Aβ1-40 aggregation inhibition assay (thioflavin T); settings: inhibitor 100 μM
Description: Aβ1-40, supplied as trifluoroacetate salt, was purchased from Bachem AG (Germany). Aβ1-40 (2 mg mL^−1) was dissolved in HFIP, lyophilized, and then resolubilized in DMSO to get a 2.3 mM Aβ1-40 solution. 1 mM Solutions of tested inhibitors were prepared by dissolution in MeOH.
Aliquots of 2 μL Aβ1-40 peptide were incubated for 24 h at room temperature in 0.215 M sodium phosphate buffer (pH 8.0) at a final concentration of 230 μM. […] The final volume of each vial was 20 μL. Each assay was run in duplicate. To quantify amyloid fibril formation, the thioflavin T fluorescence method was then applied (cf. H. Naiki et al., “Kinetic Analysis of Amyloid Fibril Polymerization in Vitro”, Lab. Invest. 1991, vol. 65, pp. 104-110). The fluorescence intensities due to β-sheet conformation were monitored for 300 s at λem=490 nm (λexc=446 nm). The percent inhibition of the AChE-induced aggregation due to the presence of the tested compound was calculated by the following expression: 100−(IFi/IFo×100) where IFi and IFe are the fluorescence intensities obtained for Aβ plus AChE in the presence and in the absence of inhibitor, respectively, minus the fluorescence intensities due to the respective blanks.

[4] = system: hippocampal slices incubated with Aβ oligomers; test: Electrophysiology (LTP) in hippocampal slices incubated with Aβ oligomers; format: cell-based, C57bl6 male mice
Description: Hippocampal slices were prepared according to standard procedures previously described. Briefly, transverse slices (350 μm) from the dorsal hippocampus were cut under cold artificial cerebrospinal fluid (ACSF, in mM: 124 NaCl, […], 10 D-glucose, 2.69 KCl, 1.25 KH2PO4 2.5 CaCl2, 1.3 MgSO4, and 2.60 NaHPO4) using a Vibratome (Leica VT 1000 s, Germany) and incubated in ACSF for 1 h at room temperature. In all experiments, 10 μM picrotoxin (PTX) was added to suppress inhibitory GABAA transmission. Slices were transferred to an experimental chamber (2 mL), superfused (3 mL/min, at 20-22° C.) with gassed ACSF and visualized by trans-illumination with a binocular microscope (MSZ-10, Nikon, Melville, N.Y.). To evoke field excitatory postsynaptic potentials (fEPSPs), we stimulate with bipolar concentric electrodes (Platinum/Iridium, 125 μm OD diameter, FHC Inc., Bowdoin, Me.) generated by a stimulator (Axon 700b, Molecular Devices, Sunnyvale, Calif.) and connected to an isolation unit (Isoflex, AMPI, Jerusalem, Israel). The stimulation was in the Stratum Radiatum within 100-200 μm from the recording site. The paired pulse facilitation index was calculated by ((R2−R1)/R1), where R1 and R2 were the peak amplitudes of the first and second fEPSP respectively. To generate LTP we used Theta Burst Stimulation (TBS) consisting of 5 trains of stimulus with an inter-train interval of 20 s. Each train consisted of 10 bursts at 5 Hz and each burst having 4 pulses at 100 Hz. To generate LTD we used Low Frequency Stimulation (LFS) consisting in 900 paired pulses at 1 Hz. […] Evoked postsynaptic responses were analyzed off-line, using an analysis software (pClampfit, Molecular Devices), which allowed visual detection of events, computing only those events that exceeded and arbitrary threshold.
Electrophysiological registers of hippocampal slices of 2-month-old C57bl6 male mice were assessed to evaluate the synaptic transmission through the long-term potentiation (LTP). […] In FIG. 3B, the quantification at min 60 of fEPSP are shown. […]

[5] = target: Electrophorus electricus (ee) AChE (Electrophorus electricus (Electric eel) (Gymnotus electricus), UniProt O42275); test: AChE inhibition assay (Ellman), eeAChE; format: biochemical
Electrophorus electricus (ee) AChE, sequence (O42275 whole entry, looked up): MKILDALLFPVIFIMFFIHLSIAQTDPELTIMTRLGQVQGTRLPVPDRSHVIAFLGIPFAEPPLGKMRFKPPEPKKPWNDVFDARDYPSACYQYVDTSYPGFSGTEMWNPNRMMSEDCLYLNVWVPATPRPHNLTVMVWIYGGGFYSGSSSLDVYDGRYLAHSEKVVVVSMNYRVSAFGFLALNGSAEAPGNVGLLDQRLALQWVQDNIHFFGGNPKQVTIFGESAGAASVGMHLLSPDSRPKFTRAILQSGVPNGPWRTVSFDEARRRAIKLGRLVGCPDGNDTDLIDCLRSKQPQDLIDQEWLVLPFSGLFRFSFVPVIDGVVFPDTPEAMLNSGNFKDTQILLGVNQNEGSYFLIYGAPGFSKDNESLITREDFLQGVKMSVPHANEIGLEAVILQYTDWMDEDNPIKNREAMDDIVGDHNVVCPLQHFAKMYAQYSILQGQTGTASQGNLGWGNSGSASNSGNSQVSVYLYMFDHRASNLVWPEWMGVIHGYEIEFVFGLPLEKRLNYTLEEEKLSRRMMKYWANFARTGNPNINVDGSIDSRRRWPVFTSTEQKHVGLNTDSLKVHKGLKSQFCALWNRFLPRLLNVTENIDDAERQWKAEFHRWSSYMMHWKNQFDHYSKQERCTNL
Description: AChE inhibitory activity of compounds (Ia)-(Ie) and (−)-(Ib) and (+)-(Ib) was evaluated spectrophotometrically at 25° C. by the method of Ellman et al., using recombinant human AChE (hAChE) and Electrophorus electricus (ee) AChE and acetylthiocholine iodide as substrate (cf. G. L. Ellman et al., “New and Rapid Colorimetric Determination of Acetylcholinesterase Activity” Biochem. Pharmacol. 1961, vol. 7, pp. 88-95). For eeAChE inhibitory activity determination, the reaction took place in a final volume of 300 μL of 0.1 M phosphate-buffered solution pH 8.0, containing 0.03 unit/mL of ee AChE and 333 μM 5,5′-dithiobis(2-nitrobenzoic) acid (DTNB) solution used to produce the yellow anion of 5-thio-2-nitrobenzoic acid. Inhibition curves were performed in duplicates using at least 10 increasing concentrations of inhibitor and preincubating at 37° C. for 20 min. One duplicate sample without inhibitor was always present to yield 100% of AChE activity. Then, substrate acetylthiocholine (450 μM) was added and the reaction was developed at 37° C. for 5 min. The color production was measured at 414 nm.
Results are expressed as mean±S.E.M. of at least 4 experiments performed in duplicate. DTNB, acetylthiocholine, butyrylthiocholine, and enzymes were purchased from Sigma.

[6] = system: APP-PS1 mice; test: Memory flexibility test (Morris water maze variant) in APP-PS1 mice; format: in vivo, mouse
[7] = system: APP-PS1 mice; test: Neuroinflammation (astrogliosis, anti-GFAP immunostaining) in APP-PS1 mice; format: in vivo, mouse
[8] = target: Aβ1-42 (Homo sapiens, UniProt P05067); test: Aβ1-42 self-aggregation inhibition assay (thioflavin T); format: biochemical; settings: inhibitor 10 μM, [Aβ]/[I]=5/1
Description: As reported in a previously published protocol (cf. M. Bartolini et al., “Insight into the Kinetic of Amyloid Beta (1-42) Peptide Self-Aggregation: Elucidation of Inhibitors' Mechanism of Action. ChemBioChem 2007, vol. 8, pp. 2152-2161), HFIP pretreated Aβ1-42 samples (Bachem AG, Switzerland) were solubilized with a CH3CN/0.3 mM Na2CO3250 mM NaOH (48.4:48.4:3.2) mixture to obtain a 500 μM solution. Experiments were performed by incubating the peptide in 10 mM phosphate buffer (pH=8.0) containing 10 mM NaCl, at 30° C. for 24 h (final Aβ concentration 50 μM) with and without inhibitor (10 μM, Aβ/inhibitor=5/1). Blanks containing the tested inhibitors were also prepared and tested.

[9] = 7-month-old APP-PS1 mice, FIG. 8
[10] = 11-month-old APP-PS1 mice, FIG. 8B
[11] = slices with Aβ oligomers, FIG. 3A
[12] = 7-month-old APP-PS1 mice, FIG. 9A
[13] = 11-month-old APP-PS1 mice, FIG. 9B

β-Secretase (BACE-1), sequence (P56817 46-501): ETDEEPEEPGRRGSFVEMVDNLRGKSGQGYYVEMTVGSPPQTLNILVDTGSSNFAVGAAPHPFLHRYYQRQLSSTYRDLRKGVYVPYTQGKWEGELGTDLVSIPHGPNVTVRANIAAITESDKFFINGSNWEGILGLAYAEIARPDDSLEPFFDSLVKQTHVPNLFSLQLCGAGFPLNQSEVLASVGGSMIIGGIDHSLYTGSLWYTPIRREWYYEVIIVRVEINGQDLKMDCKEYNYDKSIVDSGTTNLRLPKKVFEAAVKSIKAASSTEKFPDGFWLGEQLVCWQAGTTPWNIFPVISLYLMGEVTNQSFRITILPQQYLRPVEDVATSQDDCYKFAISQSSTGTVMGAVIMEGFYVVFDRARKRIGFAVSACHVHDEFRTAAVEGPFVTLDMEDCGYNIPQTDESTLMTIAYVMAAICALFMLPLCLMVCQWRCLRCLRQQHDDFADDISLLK

| SMILES | IC50 [1] | IC50 ([1]; stated in text) | Th-S amyloid aggregates, hippocampal region [2, 9] | Th-S positive area, cortex [2, 9] | Th-S amyloid deposits, cortex [2, 10] | Th-S amyloid deposits, hippocampus [2, 10] | AChE-induced Aβ1-40 aggregation (%) [3] | fEPSP magnitude response at min 60 ([4]; compared to slices treated with Aβ oligomers, FIG. 3B) | LTP induction [4, 11] | IC50 [5] | number of trials to reach criteria ([6]; 7-month-old APP-PS1 mice, i.p. three times per week for 4 weeks, untreated about 12-13 trials) | cognitive behavior in memory flexibility test (in words) ([6]; 11-month-old APP-PS1 mice) | area occupied by hyper-reactive astrocytes (GFAP), inflammatory response [7, 12] | area occupied by hyper-reactive astrocytes (GFAP), inflammatory response [7, 13] | Aβ1-42 self-induced aggregation (%) [8] | LTP induction (in words) [4, 11] | cognitive behavior in memory flexibility test (in words) ([6]; 7-month-old APP-PS1 mice) |
| --- | --- | --- | --- | --- | --- | --- | --- | --- | --- | --- | --- | --- | --- | --- | --- | --- | --- |
| CC1=C[C@H]2Cc3nc4cc(Cl)ccc4c(NCCCCCCCCCNC(=O)c4cc(O)c5c(c4)C(=O)c4cccc(O)c4C5=O)c3[C@@H](C1)C2 [(+)-(Ib)•HCl, (+)-(7R,11R)—N-{9-[(3-chloro-6,7,10,11-tetrahydro-9-methyl-7,11-methanocycloocta[b]quinolin-12-yl)amino]nonyl}-9,10-dihydro-4,5-dihydroxy-9,10-dioxoanthracene-2-carboxamide] | 80 ± 10 nM | 80 nM | reduction in the amyloid aggregates | significant reduction in the Th-S positive area | reduction in amyloid deposits | reduction in amyloid deposits | 36.9 ± 3.4% | 200% | 200% | 98.9 ± 14.2 nM | 7 trials | took less trials to reach learning criteria | decrease in the inflammatory response | decrease in the inflammatory response | 38.4 ± 5.5% |  |  |
| CC1=C[C@@H]2Cc3nc4cc(Cl)ccc4c(NCCCCCCCCCNC(=O)c4cc(O)c5c(c4)C(=O)c4cccc(O)c4C5=O)c3[C@H](C1)C2 [(−)-(Ib)•HCl, (−)-(7S,11S)—N-{9-[(3-chloro-6,7,10,11-tetrahydro-9-methyl-7,11-methanocycloocta[b]quinolin-12-yl)amino]nonyl}-9,10-dihydro-4,5-dihydroxy-9,10-dioxoanthracene-2-carboxamide] | 80 ± 10 nM | 80 nM |  | significant reduction in the Th-S positive area |  |  | 38.1 ± 0.7% |  |  | 9.4 ± 1.6 nM |  | no significant change | decrease in the inflammatory response | decrease in the inflammatory response | 43.2 ± 4.7% | no LTP induction | improved behavior within days |
